A short description of experiment [1]: 7-day oral weight loss study in diet-induced obese mice. It is filed as in vivo, C57BL/6NTac mice. The note with it: DIO mice; for weight change over the course of the study: 1.0 mg/kg oral once a day for 7 days. As to the method:
A weight loss study was conducted in obese mice. The mice in this study were not genetically obese, but prior to and during the study, obesity was induced by a high-fat diet. Twelve week-old C57BL/6NTac mice, maintained on a 60% fat diet prior to and during the study, were separated into seven groups, eight animals per group. Average body weight of the mice was approximately 47 g at the start of the study.
Each of six groups was orally administered 1.0 mg/kg of a compound ([…] compounds B. C, D, E, F and G as disclosed herein), in 10% gelucire in deoinised water. Each of these six groups was administered a different compound. One group was orally administered fumagillin at 1.0 mg/kg (group 201) in 10% gelucire in deoinised water, and one group was administered 10% gelucire in deoinised water (vehicle). Mice received administrations once a day for 7 days.
(Data analyzed by ANCOVA with body weight on Day 1 as covariate followed by multiple tests against vehicle group: *p<0.05; **p<0.01, ***p<0.001.)
A weight loss study was conducted in obese mice, similar to Example 5. Twelve week-old C57BL/6NTac mice, maintained on a 60% fat diet prior to and during the study, were separated into seven groups, eight animals per group. Average body weight of the mice was approximately 47 g at the start of the study.
The group was orally administered […] of a compound H, in 10% gelucire in deoinised water. Mice received administrations once a day for 7 days. After 7 days, the average weight loss of the mice was 13.2%.

The nature of experiment [2]: 10-day oral gavage in C57BL/6 mice conditioned on a high fat diet. It is filed as in vivo. Conditions: 0.3 or 3 mg/kg daily oral gavage, 10 days. From the text:
(§1) Oral administration of the MetAP2 inhibitor fumagillin causes an increase in circulating ketone bodies, as measured by concentration of beta hydroxybutyrate, which indicates an increase in the breakdown of stored fat.

Experiment [3] is described as follows: 28-day oral gavage in high fat diet C57BL/6 mice, fat and lean tissue change. It is filed as in vivo. Conditions: 0.1 or 0.3 mg/kg oral gavage, 28 days. The protocol: C57BL/6 mice were conditioned on a low-fat diet (LF), a high fat diet (HF), or a high-fat diet and treated with fumagillin (ZGN-201) administered by oral gavage at doses of 0.1 or 0.3 mg/kg for 28 days. […] To determine whether the weight loss resulted from loss of fat or loss of lean tissue, the percentage change in fat tissue and lean tissue was determined for LF mice, HF mice, HF mice treated with 0.1 mg/kg fumagillin, and HF mice treated with 0.3 mg/kg fumagillin.
Upon histological examination, the studies of treated obese mice show no effect on growth of new blood vessels in growing fat depots and no effect on blood vessel size or density when compared to animals in which weight loss has been induced by simple energy (food) restriction.

The nature of experiment [4]: 8 week oral treatment in overweight dogs, body weight and metabolic parameters. It is filed as in vivo. The protocol: The effects of an 8 week treatment with ZGN-201 (ZGN) on body weight and metabolic parameters in 6 overweight dogs (3 HFF and 3 chow-fed (OWC)) were evaluated. […] FI, BW, blood chemistry and hematology, beta-hydroxybutyrate (BHB), and glycerol were assessed weekly. Oral glucose tolerance tests (OGTT, 0.9 g/kg initial BW) were performed at the end of PT, ZGNTx, and WO.

For a further experiment, the system named is TXN in 293T cells. In words: FLAG-tagged TXN expression in transfected 293T cells (gel). The class given is cell-based. The note with it: 293T cells transfected with FLAG-tagged TXN. As to the method: (§2) EC50 of fumagillin to increase TXN levels is <10 nM.
Experiment [5] in a line: 250-day diet admixture in C57BL/6 mice conditioned on a high fat diet. It is filed as in vivo. As to the method:
as §1
In addition to showing an increase in beta hydroxybutyrate concentration, C57BL/6 mice conditioned on a high fat diet and treated with fumagillin (ZGN-201) as a diet admixture (1 mg/kg daily for 250 days) also experienced a reduction in body fat by approximately 40 percent (FIG. 6). Once attaining the maximum weight reduction, mice treated daily with 1 mg/kg fumagillin maintained a weight that was 25% less than that of age-matched mice maintained on normal mouse chow diet (lean mice, FIG. 6) for the duration of the experiment.
Adipose tissue in mice fed a high-fat diet show distinctive crown-like structures not seen in lean mice. These crown-like structures were also absent from the adipose tissue of fumagillin-treated mice.

A short description of experiment [6]: Oral glucose tolerance test (OGTT) in overweight dogs. The class given is in vivo. The protocol: The effects of an 8 week treatment with ZGN-201 (ZGN) on body weight and metabolic parameters in 6 overweight dogs (3 HFF and 3 chow-fed (OWC)) were evaluated. The study was comprised of three phases—pretreatment (PT: 4 weeks), treatment (ZGNTx: 8 weeks), and washout (WO: 4 weeks). FI, BW, blood chemistry and hematology, beta-hydroxybutyrate (BHB), and glycerol were assessed weekly. Oral glucose tolerance tests (OGTT, 0.9 g/kg initial BW) were performed at the end of PT, ZGNTx, and WO.

The test system of another experiment is TXN in Cos-1 cells. The experiment in a line: FLAG-tagged TXN expression in transfected Cos-1 cells (gel). It is filed as cell-based. The protocol: as §2
Experiment [7] can be described thus: 14-day treatment of high fat diet-fed C57BL/6 mice, body weight and food intake. It is filed as in vivo. The note with it: 1 mg/kg. As to the method:
High fat diet-fed C57BL/6 mice were treated with 1 mg/kg of the MetAP2 inhibitor fumagillin (ZGN-201, squares) or vehicle (diamonds) for 14 days (FIG. 10). Body weights (left panel) were determined daily, while food intake (right panel) was assessed every other day by measuring the food consumed by each cage of three mice over the two day period. Data shown in FIG. 10 are means±SEM, n=9 animals. […] First, during the initial two to three days of treatment, no overt changes in food intake or body weight are observed. During this time period key changes in MetAP2 substrates occur, including glyceraldehyde-3-phosphate dehydrogenase and thioredoxin (data not shown). Second, the animals enter a period of rapid weight loss that proceeds until essentially all excess fat deposits are consumed. During this second period, fat oxidation is enhanced and food intake is inhibited.
Weight loss following treatment with therapeutically relevant doses of MetAP2 inhibitors stops once animals attain a normal body composition. […] This third phase can be maintained indefinitely provided the drug is continued (see FIG. 10), or presumably can be maintained in practice through other complementary pharmacologic, dietary, or lifestyle interventions.

The test system of experiment [8] is Thioredoxin-1 (TXN) in B16F10 cells. In words: N-terminal chymotryptic fragments of TXN measured by LC/MS in B16F10 cells treated with fumagillin. The class given is cell-based. As to the method: B16F10 cells were treated with increasing concentrations of fumagillin. N-terminal chymotryptic fragments of TXN were measured by liquid chromatography/mass spectrometry (LC/MS). […] The EC50 of fumagillin to increase Met-TXN acetylated Met-TXN levels is <10 nM.

Setting [9] is: High-fat high fructose dogs, WO.
[10] abbreviates: High-fat high fructose dogs, ZGNTx.
[11] abbreviates: diet admixture 1 mg/kg daily, 250 days.

As a reminder, the EC50 is the concentration giving half of the maximal effect. Turning to `CO[C@@H]1[C@H](OC(=O)/C=C/C=C/C=C/C=C/C(=O)O)CC[C@]2(CO2)[C@H]1[C@@]1(C)O[C@@H]1CC=C(C)C` [fumagillin], the “weight change over the course of the study” value in experiment [1] is on record as “lost the most weight”. Besides, in [2], the beta hydroxybutyrate concentrations result is listed as “increase” and the “free fatty acid concentration” value was “without an increase”. The body weight entry in experiment [3] is “reduction in body weight down to the level of low fat fed mice”. For the same compound, in experiment [3] (HF mice), the reduction in fat was 40-50% and the “reduction in lean tissue” value is recorded as 5-10%. Besides, the “reduction of FI” value in experiment [4] (HFF dogs) amounted to 29%. Further, in experiment [4] (HFF dogs, daily oral, 8 weeks), the “loss of body weight” value is “approximately 8%” and the “loss of excess BW” value was 81%. For the same compound, in experiment [4] (HFF dogs, eight to ten weeks following discontinuation), the “weight loss sustained after discontinuation of treatment” value was “approximately one half of the initial weight loss was sustained”. In experiment [4] (setting [9]), this compound showed a BHB of 39 ± 7 µM, an FI of 1657 ± 147 kcal/day and a Glycerol of 66 ± 25 µM. The same compound had a BW in experiment [4] (High-fat high fructose dogs, WO (4 weeks washout)) of 31.7 ± 2.9 kg. In experiment [4] (setting [10]), this compound showed a BHB of 76 ± 9 µM, an FI of 1187 ± 258 kcal/day and a Glycerol of 131 ± 54 µM. The BW in experiment [4] (High-fat high fructose dogs, ZGNTx (8 weeks treatment)) amounted to 30.8 ± 3.4 kg. Also, the “reduction of FI” value in [4] (OWC dogs) was 9%. For the same compound, the weight gain entry in experiment [4] (OWC dogs, daily oral, 8 weeks) is “inhibited weight gain”. Besides, in [4] (Overweight chow dogs, WO), the BHB came out at 44 ± 5 µM, the BW is 18.6 ± 0.7 kg, the FI was 1116 ± 22 kcal/day and the Glycerol is 86 ± 33 µM. In experiment [4] (Overweight chow dogs, ZGNTx), this compound yielded a BHB of 48 ± 11 µM, a BW of 17.8 ± 0.5 kg, an FI of 1255 ± 64 kcal/day and a Glycerol of 143 ± 26 µM. In experiment [4] (overweight dogs, treatment), the BHB levels entry is “increased in HFF only” and the glycerol levels result is reported as “increased”. Further, the “expression of TXN” value in the experiment with TXN in 293T cells is “significantly increased”. In experiment [5] (1 mg/kg daily, 250 days), the “retroperitoneal fat pad weight” value is reported as “more similar to that of age-matched lean mice”; the “size and appearance of epididymal fat, peri-renal fat and liver” value was “more similar to that of age-matched lean mice”. For the same compound, the “maintained weight less than that of age-matched lean mice on normal chow” value in experiment [5] (1 mg/kg daily, after maximum weight reduction) amounted to 25%. The “fasted glucose and insulin levels, insulin-glucose product” value in [5] (1 mg/kg, high fat diet mice) is recorded as “more similar to that of age-matched lean mice”. In experiment [5] (setting [11]), the “hydroxybutyrate concentration at longer time points” value is on record as “Increased hydroxybutyrate concentration persisted” and the “reduction in body fat” value is “approximately 40%”. For the same compound, in experiment [5] (high fat diet mice), the adipocyte size entry is given as “more similar to that of age-matched lean mice” and the “crown-like structures in adipose tissue” value is recorded as “absent”. The sensitivity to insulin entry in [5] (mice on a high fat diet) was “normalizes sensitivity to insulin”. Besides, the “reduction in insulin secretion (C-peptide AUC)” value in experiment [6] (end of 8 week treatment, OGTT) was determined as 32%. In addition, in experiment [6] (end of 8 week treatment, OGTT 0.9 g/kg), the “reversal of the abnormality in the plasma glucose excursion during the OGTT” value was 75%. In experiment [6] (end of washout, OGTT), the “improvement in plasma glucose after the drug was washed out” value is recorded as “completely reversed”. Besides, the EC50 in the experiment with TXN in Cos-1 cells (Chlorocebus aethiops, FIG. 4 gel, cell line (Cos-1 or 293T) not specified, read-out: EC50 to increase TXN levels) is under 0.01 µM. Also, the “expression of TXN” value in the experiment on TXN in Cos-1 cells (Cos-1 cells transfected with FLAG-tagged TXN) is given as “significantly increased”. Moreover, the “food intake during period of rapid weight loss” value in [7] (14 days, second phase) is “inhibited”. For the same compound, the “food intake after weight loss reaches a nadir” value in experiment [7] (third phase) is listed as “returns to normal levels”. In experiment [8] (Mus musculus, B16-F10, read-out: EC50 to increase Met-TXN acetylated Met-TXN levels), the EC50 is under 0.01 µM. Further, in [8] (increasing concentrations), the “accumulation of N-acetyl TXN(1-4)” value is listed as “significant accumulation” and the “cellular level of TXN containing an intact N-terminal methionine [TXN(1-4)]” value is reported as “significantly increased”.
As for `CO[C@@H]1[C@H](OC(=O)N[C@@H](C(N)=O)C(C)C)CC[C@]2(CO2)[C@H]1[C@@]1(C)O[C@@H]1CC=C(C)C` [B], the “weight change over the course of the study” value in experiment [1] was “lost weight”.
Same read-out and setting: the result for `CO[C@@H]1[C@H](OC(=O)NCCC2CCCN2C)CC[C@]2(CO2)[C@H]1[C@@]1(C)O[C@@H]1CC=C(C)C` (some centres unmarked) [C] reads “lost weight”.
In [1] (100.0 mg/kg oral once a day, after 7 days), `CCN(CC)C/C=C\c1ccccc1S(=O)(=O)Nc1ccc2c(c1C(=O)O)CCCC2` [H] showed an average weight loss of 13.2%.

Source of the values: US10406134B2, “Methods of treating an overweight subject” (Zafgen, Inc., priority 2010, dated 2019).
